{
  "source": "patent US20030044413A1",
  "about": "“Methods of limiting apoptosis of cells” (Regents of the University of Minnesota, priority 1998, published 2003)",
  "key": {"[1]": {"tested_on": "HuH-7 cells", "assay": "TGF-β1-induced apoptosis, Hoechst staining, HuH-7 cells", "format": "cell-based, human", "method": "Incubation of cells with ethanol, TGF-β1, anti-Fas antibody or okadaic acid. Freshly isolated rat hepatocytes were cultured for 3 h as described above and then incubated with William's E medium supplemented with either 0.5% ethanol, 50 μM UDCA, ethanol plus UDCA, or no addition (control) for 2 h and 4 h. HuH-7 cells were incubated with Dulbecco's medium supplemented with either 1 nM TGF-β1 (R & D Systems, Minneapolis, Minn.), 100 μM UDCA, TGF-β1+UDCA, or no addition (control) for 24 h, 48 h, and 72 h. Hep G2 cells were incubated with Dulbecco's medium supplemented with either 0.5 μg/ml of anti-Fas antibody CH-11 (Upstate Biotechnology, Inc., Lake Placid, N.Y.), 100 μM UDCA, CH-11+UDCA, or no addition for 48 h. Both HuH-7 cells and human osteogenic sarcoma Saos-2 cells were cultured in Dulbecco's medium supplemented with either 50 nM okadaic acid (Boehringer Mannheim Biochemicals, Inc, Indianapolis, Ind.), 100 μM UDCA, okadaic acid+UDCA, or no addition for 48 h. In all the combination groups, cells were pretreated with UDCA alone for 60 min prior to addition of ethanol, TGF-β1, anti-Fas antibody or okadaic acid.\nHuH-7 cells were treated with 1 nM TGF-β1, 100 μM of either hyodeoxycholic acid, taurocholic acid, tauroursodeoxycholic acid (Sigma Chemical Co.) or glycoursodeoxycholic acid (Steraloids Inc., Wilton, N.H.), or a combination of TGF-β1 plus the individual bile acids for 72 h. HeLa and Cos-7 cells were incubated with 50 nM okadaic acid, 100 μM of either tauroursodeoxycholic acid or glycoursodeoxycholic acid, or a combination of okadaic acid plus the individual bile acids for 24 h. In the combination groups, cells were pretreated with the bile acid alone for 60 min prior to incuation with TGF-β1 or okadaic acid. In all studies, the medium was gently removed at the indicated times and scored for nonviable cells. The attached cells were fixed for morphologic evaluation of apoptosis.\nMorphological evaluation of apoptosis. […] Fluorescence was visualized with a Zeiss standard fluorescence microscope (Carl Zeiss, Inc., Thornwood, N.Y.). Photographs were taken with Kodak Ektar-1000 film (Eastman Kodak Co.). Stained nuclei were scored by blind analysis and categorized according to the condensation and staining characteristics of chromatin. Normal nuclei were identified as noncondensed chromatin dispersed over the entire nucleus. Apoptotic nuclei were identified by condensed chromatin, contiguous to the nuclear membrane, as well as nuclear fragmentation of condensed chromatin. Three fields per dish of approximately 500 nuclei were counted; mean values are expressed as the percent of apoptotic nuclei."}, "[2]": {"tested_on": "isolated rat liver mitochondria", "assay": "MPT spectrophotometric assay (mitochondrial swelling)", "conditions": "for mitochondrial swelling with the substance alone: substance alone added to isolated mitochondria; for effect on DCA-induced MPT / mitochondrial swelling: preincubation (500 μM bile acid or cyclosporine A) before DCA", "method": "Isolation of mitochondria and MPT assays. Low calcium liver mitochondria were isolated from male 200-250 g Sprague-Dawley rats by density gradient centrifugation as previously published (Botla et al., J. Pharmacol. Exp. Ther., 272, 930-938 (1995); Walajtys-Rhode et al., J. Biol. Chem., 267, 370-379 (1992); and Sokol et al., Gastroenterology, 99, 1061-1071 (1990)). The mitochondrial fraction was resuspended in 30 ml of wash buffer containing 0.1 M KCl, 5 mM 3-(N-morpholino)-propane sulfonic acid (MOPS), and 1 mM EGTA, at pH 7.4 and centrifuged at 7,000×g for 10 min at 4° C. A final wash was carried out in chelex-100-treated buffer (Bio-Rad Laboratories, Hercules, Calif.) containing no EGTA. The resulting pellet was suspended in 4 ml of chelex--100-treated buffer containing 125 mM sucrose, 5 mM HEPES, 50 mM KCl and 2 mM KH2PO4. The usual yield of mitochondria was approximately 25 mg of protein per gram of liver tissue. Mitochondrial purity was established as previously described (Botla et al., J. Pharmacol. Exp. Ther., 272, 930-938 (1995)). Protein concentrations were determined using the Bio-Rad protein assay kit as specified by the manufacturer.\nMPT was measured spectrophotometrically as described previously (Botla et al., J. Pharmacol. Exp. Ther., 272, 930-938 (1995); Pastorino et al., J. Biol. Chem., 268, 13791-13798 (1993)), during 10 min incubations at 25° C. using mitochondria (1 mg of protein/ml) suspended in 3 ml of a chelex-100-treated buffer containing 0.1 M NaCl, 10 mM MOPS, pH 7.4. Swelling was monitored at 540 nm in a Beckman DU 64 spectrophotometer. Basal values of mitochondria absorbance were measured for 5 min, and the optical density was monitored another 5 min after addition of 200 μM DCA or 80 μM phenylarsine oxide (PhAsO; Sigma Chemical Co.). For coincubation studies, mitochondria were preincubated with 500 μM UDCA or hyodeoxycholic acid for 5 min at 25° C. prior to the assay.\nSpectrophotometric and Fluorimetric Assays of MPT. The MPT was assessed using a spectrophotometric assay measuring high amplitude rapid changes in mitochondrial volume, and a fluorimetric assay quantitating the release of calcein from calcein-loaded mitochondria. The MPT was measured spectrophotometrically as previously described (Pastorino, J. Biol. Chem., 268, 13791-13798 (1993); Botla et al., J. Pharmacol. Exp. Ther., 272, 930-938 (1995)). Briefly, mitochondria (3 mg protein) were incubated in 3 ml of chelex-100-treated respiration buffer (0.1 M NaCl, 10 mM MOPS, pH 7.4) for 10 min at 25° C. and monitored at 540 nm in a Beckman DU 64 spectrophotometer. Basal values of mitochondrial absorbance were measured for 5 min, and the optical density was monitored for an additional 5 min after addition of increasing concentrations of DCA (50-200 μM) or 80 μM phenylarsine oxide (PhAsO; Sigma Chemical Co., St. Louis, Mo.). For the coincubation studies, mitochondria were preincubated with UDCA (100-500 μM), or 500 μM hyodeoxycholic acid (HDCA; Sigma Chemical Co.) for 5 min at 25° C. prior to initiation of the assay.\nMeasurement of MPT and determination of cytochrome c content in supernatants and mitochondrial pellets after MPT. The MPT was assessed using a spectrophotometric assay measuring high amplitude rapid changes in mitochondria volume. Mitochondria (1 mg protein) were incubated in 1 ml of chelex-100-treated respiration buffer (0.1 M NaCl, 10 mM MOPS, pH 7.4) for 10 min at 25° C. and swelling was monitored at 540 nm in a Beckman DU 64 spectrophotometer. Malate and glutamate (1 mM) were added to initiate respiration, and 3 min later rotenone (5 μM), an inhibitor of complex I of the respiratory chain, was also added to the supension. Basal values of mitochondria absorbance were measured for 5 min, and the optical density was monitored for an additional 5 min after addition 200 μM DCA or 80 μM phenylarsine oxide (PhAsO; Sigma Chemical Co.). […]"}, "[3]": {"conditions": "1 nM TGF-β1, 100 μM bile acid, 72 h"}},
  "note": "Several values for one entry are separate records, joined by “and”; a condition that tells them apart may be missing. Equal values may be shown once. Entries after “also recorded” stand apart in the source; their conditions may differ.",
  "data": [
    {"molecule": "TGF-β1: transforming growth factor β1, nonmembrane damaging inducer of apoptosis", "values": [
      {"measurement": "induction of apoptosis", "setting": "[1]; 1 nM TGF-β1", "result": "significant apoptosis"},
      {"measurement": "mitochondrial swelling with the substance alone", "setting": "[2]", "result": "did not induce mitochondria swelling"}
    ]},
    {"molecule": "C=C1[C@@H](O)[C@@H]2O[C@]3(CC[C@H](/C=C/[C@@H](C)[C@@H]4CC(C)=C[C@@]5(O[C@H](C[C@@](C)(O)C(=O)O)CC[C@H]5O)O4)O3)CC[C@H]2O[C@@H]1[C@@H](O)C[C@H](C)[C@H]1O[C@@]2(CCCCO2)CC[C@H]1C", "note": "[okadaic acid]", "values": [
      {"measurement": "mitochondrial swelling with the substance alone", "setting": "[2]", "result": "did not induce mitochondria swelling"}
    ]},
    {"molecule": "C[C@H](CCC(=O)O)[C@H]1CC[C@H]2[C@@H]3[C@@H](O)C[C@@H]4C[C@H](O)CC[C@]4(C)[C@H]3CC[C@]12C", "note": "[UDCA, ursodeoxycholic acid]", "values": [
      {"measurement": "decrease of TGF-β1 apoptosis", "setting": "[1]; 1 nM TGF-β1, 100 μM bile acid, 24 h", "result": "approximately 49%"},
      {"measurement": "decrease of TGF-β1 apoptosis", "setting": "[1]; 1 nM TGF-β1, 100 μM bile acid, 48 h", "result": "~44", "unit": "%"},
      {"measurement": "decrease of TGF-β1 apoptosis", "setting": "[1]; [3]", "result": "~45", "unit": "%"},
      {"measurement": "Inhibition % Apoptosis", "setting": "[1]; inducer TGF-β1, HuH-7, inhibition by UDCA", "result": "44.2 ± 11.2", "unit": "%"},
      {"measurement": "swelling", "setting": "[2]; 100 μM UDCA 5 min before 200 μM DCA", "result": "26.8±6.3", "unit": "%"},
      {"measurement": "inhibition of DCA-induced MPT (mitochondrial swelling)", "setting": "[2]; 200 μM DCA, pretreatment 500 μM UDCA or 5 μM cyclosporine A", "result": "> 40% and 43.1±1.6%"},
      {"measurement": "swelling", "setting": "[2]; 500 μM UDCA 5 min before 200 μM DCA", "result": "16.9±2.3", "unit": "%"}
    ]},
    {"molecule": "C[C@H](CCC(=O)O)[C@H]1CC[C@H]2[C@@H]3CC[C@@H]4C[C@H](O)CC[C@]4(C)[C@H]3C[C@H](O)[C@]12C", "note": "[DCA, deoxycholic acid]", "values": [
      {"measurement": "concentration at which high amplitude mitochondrial swelling was detected (as low as)", "setting": "[2]", "result": 50, "unit": "µM"},
      {"measurement": "MPT, increase over control", "setting": "[2]; 50 μM DCA", "result": 4, "unit": "fold"}
    ]},
    {"molecule": "C[C@H](CCC(=O)O)[C@H]1CC[C@H]2[C@@H]3C[C@H](O)[C@@H]4C[C@H](O)CC[C@]4(C)[C@H]3CC[C@]12C", "note": "[hyodeoxycholic acid]", "values": [
      {"measurement": "inhibition of TGF-β1-induced apoptosis", "setting": "[1]; [3]", "result": "did not; also recorded: neither hyodeoxycholic acid nor taurocholic acid showed inhibition"},
      {"measurement": "effect on DCA-induced MPT / mitochondrial swelling", "setting": "[2]", "result": "nor did it have a protective effect"},
      {"measurement": "effect on DCA-induced MPT / mitochondrial swelling", "setting": "[2]; listed as HDCA", "result": "did not decrease DCA-induced mitochondrial swelling"},
      {"measurement": "mitochondrial swelling with the substance alone", "setting": "[2]", "result": "No significant mitochondrial swelling"}
    ]}
  ]
}
